Results published in US20120321621A1, “INHIBITION OF FcyR-MEDIATED PHAGOCYTOSIS WITH REDUCED IMMUNOGLOBULIN PREPARATIONS” (priority 2008, published 2012).

Assays:
[1] = test system: FcγR-mediated phagocytosis of anti-D-sensitized R2R2 RBCs by monocyte-macrophages; experiment: Monocyte monolayer assay (MMA): inhibition of phagocytosis of anti-D-sensitized R2R2 RBCs; type: cell-based, human; conditions: for inhibition of phagocytosis by chemical alone after dialysis: after extensive dialysis
Description: Residual and phagocytosed RBCs were distinguished by relative differences in refracted light under phase-contrast microscopy.

[2] = test system: FcγR-mediated phagocytosis of anti-D-sensitized R2R2 RBCs by monocyte-macrophages; conditions: 10^−4M, MMA (Rampersad et al.); cited from earlier work

SMILES	inhibition of phagocytosis by chemical alone after dialysis [1]	inhibition of FcγR-mediated phagocytosis by chemical alone [2]	inhibition of phagocytosis by undialyzed chemical alone ([1]; undialyzed, 10^−5 or 10^−3 mol per L) [%]	inhibition at 10000 µM ([1]; Homo sapiens, Monocyte, free, undialyzed, 10^−2M, read-out: inhibition of phagocytosis by free chemical) [%]
Cc1ccc(S(=O)(=O)CS)cc1 [p-toluenesulfonylmethyl mercaptan]	not able to inhibit phagocytosis	approximately 70%	–	–
C[CH2][Hg][S]c1ccccc1C(=O)[O-].[Na+] [thimerosal]	no longer inhibits phagocytosis	–	100	–
O[C@H](CS)[C@H](O)CS (racemic) [DTT, Dithiothreitol]	no inhibition	–	–	~30
